Laboratory results published in patent publication US12459951B2, “Compounds that interact with RAS superfamily proteins for treatment of cancers, inflammatory diseases, rasopathies, and fibrotic disease” (SHY Therapeutics, LLC, priority 2022, dated 2025).

Columns and labels:
active/cleaved caspase 3 = assay: Cell-based caspase activation assay (western blot); design: species or system human
Procedure: (§1) Biological Example 4: Puma Expression and Caspases Activation Assay
(§2) Protocols for Cell-Based Puma Expression and Caspase Activation Assays
(§3) Cell lines: All human tumor-derived cancer cell lines were purchased from American Type Culture Collection. Human tumor-derived cancer cell lines Panc-1 (expressing KRas G12D mutant), MiaPaca-2 (expressing KRas G12C mutant), A549 (expressing KRas G12S mutant), and A375 (expressing wild type KRas) were grown in complete DMEM-High Glucose medium and NCI-H1975 (expressing wild type KRas), MM.1R (expressing wild type KRas) and IM.9 (expressing wild type KRas) were grown in RPMI1640 medium. Human tumor-derived cancer cell line BT-549 (expressing wild type KRas) was grown in RPMI1640 medium with 11.8U insulin. All mediums were supplemented with penicillin (100 U/mL), streptomycin (100 μg/mL), and 10% heat-inactivated FBS at 37° C. in a humidified incubator with 5% CO2.
(§4) Method: Cells were plated at 300,000 to 800,000 cells/well density in a 6-well plate in the presence of 10% FBS. The next day small molecules to be tested were added to the cells in the final concentration of 3 μM in the presence of 0.3% DMSO for 48 hours incubation at 37° C. For IC50 value determination, serial dilutions of compounds were added to cells under the same conditions. Following 48 hours of incubation cells were lysed with lysis buffer containing 1% Triton X-100, EDTA, and Halt™ Protease & Phosphatase Inhibitor Cocktail (Thermo Scientific). Protein concentration was assessed by BCA protein assay (Thermo Scientific). Increase expression of PUMA and active/cleaved forms of caspase 3, caspase 6 and caspase 9 were detected by western blot.
(§5) Western blot protocol: Equal amounts of protein (15-50 μg) were separated by SDS-PAGE and transferred to nitrocellulose membranes (Invitrogen by Thermo Fisher Scientific). The membrane was stained with Ponceau S Stain (Boston BioProducts) to verify uniform protein loading. Membranes were blocked with 10% milk and expression levels of PUMA was assessed by incubating overnight at 4° C. with the antibody PUMA (D30C10) from Cell Signaling Technology (#12450) and active/cleaved forms of caspase 3, caspase 6 and caspase 9 by incubating overnight at 4° C. with the following antibodies: cleaved caspase-3 (Asp175) (5A1E), cleaved caspase-6 (Asp162) and cleaved caspase-9 (Asp330) (D2D4) (all antibodies from Cell Signaling Technology). Then the membranes were incubated with HRP-conjugated secondary antibody (Jackson Immunoresearch, West Grove, PA). Bands were incubated in Amersham ECL Prime Western Blotting Detection Reagent (GE Healthcare) and visualized using the ChemiDoc MP imaging system (Bio-Rad).

active/cleaved caspase 9 = assay: Cell-based caspase activation assay (western blot); design: species or system human
Procedure: as §1, §2, §3, §4, §5

PUMA expression = assay: Cell-based Puma expression assay (western blot); design: species or system human
Procedure: as §1, §2, §3, §4, §5

[1] = system: NCI-H358 (expressing KRas G12C mutant); assay: Proliferation Assay (Cell Viability Assay); assay type: cell-based; details: Homo sapiens; Proliferation assay, NCI-H358; read-out: NCI-H358 IC50 (nM) NSCLC
Outline: (§6)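 Cells plated at 2000–5000/well overnight, then treated 2–4 days at 37 °C, 5% CO2 with compound at 10 μM single dose or serial dilutions for IC50, in 0.3% DMSO and 10% FBS. Viability read by CellTiter 96 Aqueous One (MTS); % proliferation inhibition calculated from raw data.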

A375 (wild type Kras) = assay: Proliferation Assay (Cell Viability Assay); assay type: cell-based; details: Homo sapiens, A-375; Proliferation assay, A375; read-out: A375 IC50 (nM) Melanoma
Outline: as §6

[2] = system: BT-549 (expressing wild type KRAS); assay: Proliferation Assay (Cell Viability Assay); assay type: cell-based; details: Homo sapiens, BT-549; Proliferation assay, BT549; read-out: BT549 IC50 (nM) TNBC
Outline: as §6

[3] = system: GP2d (expressing KRas G12D mutant); assay: Proliferation Assay (Cell Viability Assay); assay type: cell-based; details: Homo sapiens, Proliferation assay, read-out: GP2d IC50 (nM) Colorectal
Outline: as §6

[4] = system: MM.1R (expressing wild type KRAS); assay: Proliferation Assay (Cell Viability Assay); assay type: cell-based; details: Homo sapiens, read-out: MM.1R IC50 (nM) Multiple Myloma
Outline: as §6

Compound	Caspase 3 activation (active/cleaved caspase 3; A549, after 48 hours)	Caspase 3 activation (active/cleaved caspase 3; BT-549, after 48 hours)	Caspase 3 activation (active/cleaved caspase 3; MiaPaca2, after 48 hours)	Caspase 9 activation (active/cleaved caspase 9; A549, after 48 hours)	Caspase 9 activation (active/cleaved caspase 9; BT-549, after 48 hours)	Caspase 9 activation (active/cleaved caspase 9; MiaPaca2, after 48 hours)	Increased PUMA expression (PUMA expression; A549, after 48 hours)	Increased PUMA expression (PUMA expression; BT-549, after 48 hours)	Increased PUMA expression (PUMA expression; MiaPaca2, after 48 hours)	IC50 [1] [nM]	IC50 (A375 (wild type Kras)) [nM]	IC50 [2] [nM]	IC50 [3] [nM]	IC50 [4] [nM]
Cc1c(-c2ccn(C(C)C)n2)cn2nc(-c3nccn3C)nc(Nc3cc4n(n3)CCO4)c12 [Compound 91, N-(6-(1-Isopropyl-1H-pyrazol-3-yl)-5-methyl-2-(1-methyl-1H-imidazol-2-yl)pyrrolo[2,1-f][1,2,4]triazin-4-yl)-2,3-dihydropyrazolo[5,1-b]oxazol-6-amine]	yes	yes	yes	yes	yes	yes	yes	yes	yes	1 to 10	1 to 10	1 to 10		
Cc1c(-c2ccn(C(C)C)n2)cn2nc(-c3nccn3C)nc(Nc3ccn(C4CC4)n3)c12 [Compound 84, N-(1-Cyclopropyl-1H-pyrazol-3-yl)-6-(1-isopropyl-1H-pyrazol-3-yl)-5-methyl-2-(1-methyl-1H-imidazol-2-yl)pyrrolo[2,1-f][1,2,4]triazin-4-amine]										1 to 10	1 to 10	1 to 10	1 to 10	< 1
